Measured values as given in paper PMC6704710, “Preclinical evaluation of 3D185, a novel potent inhibitor of FGFR1/2/3 and CSF-1R, in FGFR-dependent and macrophage-dominant cancer models” (Journal of Experimental & Clinical Cancer Research : CR, 2019).

Experiments:
[1] = test system: CSF-1-differentiated macrophages induced RT112 cell migration; assay: Tumor cell migration assay (Transwell co-culture); type: cell-based, human; conditions: 25 nM, 24 h
[2] = test system: MC38 colorectal adenocarcinoma model; assay: In vivo antitumor activity, MC38 model; design: species or system C57BL/6 mice; conditions: oral once daily 23 days
Protocol: For the MC38 xenograft model, 6-week-old C57BL/6 mice were housed and maintained under specific pathogen-free conditions. Tumor cells (2 × 10^6 in 200 μL) were injected subcutaneously (s.c.) into the right flanks of C57BL/6 mice. […] The tumors were measured twice per week using a microcaliper. Tumor volume (TV) was calculated as follows: TV = (length × width^2)/2. In addition, the individual relative tumor volume (RTV) was calculated as follows: RTV = Vt / V0, where Vt is the volume on a particular day and V0 is the volume at the beginning of the treatment. The RTV is shown on the indicated days as the […] ± SEM for the indicated groups of mice.

BMDM (CSF-2) = assay: Macrophage survival (CCK-8); type: cell-based, murine; conditions: 7 days
Protocol: (§1) Murine bone marrow-derived macrophages (BMDMs) and PBMCs were used for cell viability studies. BMDMs were harvested by flushing the tibias and femurs of 6- to 8-week-old C57BL/6 mice and depleting red blood cells (RBCs) by RBC lysis (Biogems). For BMDM survival, the cells were cultured for 7 days in RPMI 1640 containing 10% fetal bovine serum (FBS), 100 U/mL penicillin, 100 μg/mL streptomycin and 100 ng/mL mouse CSF-1 (or CSF-2) with or without the tested compounds. PBMCs were obtained from HemaCare and cultured for 7 days in RPMI 1640 containing 10% fetal bovine serum (FBS), 100 U/mL penicillin, 100 μg/mL streptomycin and 100 ng/mL human CSF-1 (or CSF-2) with or without the tested compounds. Cell viability was measured using the CCK-8 assay. For IL-4/IL-13-induced macrophage survival analysis, viable cells were counted by trypan blue exclusion.

PBMC (CSF-2) = assay: Macrophage survival (CCK-8); type: cell-based; conditions: Homo sapiens, 168 h, 7 days
Protocol: as §1

PBMC (CSF-1) = assay: Macrophage survival (CCK-8); type: cell-based; conditions: Homo sapiens, 168 h, 7 days, mean ± SD
Protocol: (§2) Murine bone marrow and human monocytes were stimulated with CSF-1 for 7 days together with the indicated inhibitor, and cell viability was evaluated by the CCK-8 assay. The IC50 values are shown as the mean ± SD (nM) from two independent tests. B-E, To test the impact of 3D185 on the polarization of CSF-1-induced macrophages, murine bone marrow cells and human monocytes were induced to mature into macrophages with CSF-1 for 7 days and then stimulated with CSF-1, IL-4 and IL-13 for an additional 48 h. The expression of the markers MHC-II (b), CD86 (c), and CD206 (d) on induced murine macrophages and CD206 expression on induced human macrophages (e) were determined by flow cytometry, and the mean fluorescence intensity (MFI) was analyzed with FlowJo. Representative data from two independent experiments. f Murine bone marrow cells (left panel) and human monocytes (right panel) were induced to mature into macrophages with CSF-1 for 7 days and then stimulated with CSF-1, IL-4 and IL-13 and treated with vehicle or the indicated inhibitor for an additional 48 h. Then, all cells were collected to count viable cells by staining with trypan blue
Murine bone marrow-derived macrophages (BMDMs) and PBMCs were used for cell viability studies. […] Cell viability was measured using the CCK-8 assay. For IL-4/IL-13-induced macrophage survival analysis, viable cells were counted by trypan blue exclusion.

BMDM (CSF-1) = assay: Macrophage survival (CCK-8); type: cell-based, murine; conditions: 7 days, mean ± SD
Protocol: as §2, §1

M-NFS-60 = assay: Cell proliferation assay; type: cell-based, mouse; conditions: 72 h, mean ± SD
Protocol: (§3) The cancer cell lines indicated in Figure 3 were seeded in 96-well plates at a low density in growth medium. The next day, appropriate controls or the designated concentrations of the compounds were added to each well, and the cells were incubated for 72 h. HUVECs (passage 3) were seeded in 96-well plates in growth medium overnight and transferred to serum-free medium for 24 h. The following day, appropriate controls or the designated concentrations of the compounds were added to each well, and 100 ng/mL growth factor (bFGF or VEGF) was added to the indicated wells. The cells were incubated for 48 h. Finally, cell proliferation was determined using a sulforhodamine B (SRB) assay or a cell counting kit-8 (CCK-8) assay. […] IC50 values for proliferation curves were calculated using a 4-parameter logistic nonlinear regression model with SoftMax Pro Software (Molecular Devices, San Jose, USA).

NCI-H716 = assay: Cell proliferation assay; type: cell-based, human; conditions: 72 h, mean ± SD
Protocol: as §3

OPM2 = assay: Cell proliferation assay; type: cell-based, human; conditions: 72 h, mean ± SD
Protocol: as §3

UMUC14 = assay: Cell proliferation assay; type: cell-based, human; conditions: 72 h, mean ± SD
Protocol: as §3

RT112 = assay: Cell proliferation assay; type: cell-based, human; conditions: 72 h, mean ± SD
Protocol: as §3

KG-1 = assay: Cell proliferation assay; type: cell-based, human; conditions: 72 h, mean ± SD
Protocol: as §3

KATOIII = assay: Cell proliferation assay; type: cell-based, human; conditions: 72 h, mean ± SD
Protocol: as §3

SUM52PE = assay: Cell proliferation assay; type: cell-based, human; conditions: 72 h, mean ± SD
Protocol: as §3

SNU16 = assay: Cell proliferation assay; type: cell-based, human; conditions: 72 h, mean ± SD
Protocol: as §3

NCI-H1581 = assay: Cell proliferation assay; type: cell-based, human; conditions: 72 h, mean ± SD
Protocol: as §3

HUH7 = assay: Cell proliferation assay; type: cell-based, human; conditions: 72 h, mean ± SD
Protocol: as §3

Row | Compound | effect on macrophage-induced RT112 cell migration [1] | effect on MC38 tumor growth [2] | IC50 (BMDM (CSF-2); Mus musculus, BMDM, 168 h) | IC50 (PBMC (CSF-2)) | IC50 (PBMC (CSF-1)) | IC50 (BMDM (CSF-1); Mus musculus, BMDM, 168 h) | IC50 (M-NFS-60) | IC50 (BMDM (CSF-2)) | IC50 (NCI-H716) | IC50 (OPM2) | IC50 (UMUC14) | IC50 (RT112) | IC50 (KG-1) | IC50 (KATOIII) | IC50 (SUM52PE) | IC50 (SNU16) | IC50 (NCI-H1581) | IC50 (HUH7) | IC50 (BMDM (CSF-1))
1 | FC(F)(F)c1ccc(CNc2ccc(Cc3c[nH]c4ncc(Cl)cc34)cn2)cn1 [PLX3397, reference compound] | no inhibitory effect | delayed tumor growth | > 1000 nM | > 1000 nM | 220 ± 38.6 nM | 195 ± 48.2 nM | – | – | – | – | – | – | – | – | – | – | – | – | –
2 | AZD4547 [reference compound] | – | – | – | – | – | – | 1230 ± 184 nM | > 1000 nM | 7 ± 0.9 nM | 33 ± 7.6 nM | 52.9 ± 4.6 nM | 83.3 ± 6.4 nM | 3 ± 0.3 nM | 15.1 ± 2.9 nM | 15.5 ± 2.4 nM | 2.7 ± 0.4 nM | 43.8 ± 8.6 nM | 284 ± 22.5 nM | 883 ± 133 nM
